Assay results reported in patent US9101635B2 (priority 2009, dated 2015).
Read-outs that look alike come from different tables or passages of the source.

How the values were obtained:
[1] = system: HIV/VSV-G pseudotype virus; assay: microbe, parasite or virus in culture; assay type: cell-based, vesicular stomatitis virus; conditions: for inhibition at 25 µM: Human immunodeficiency virus 1, HEK-293T, read-out: Inhibition of pseudotype virus at 25 μM in 293T cells (%) HIV/VSV-GP
[2] = system: HIV/EBOV-GP pseudotype virus; assay: microbe, parasite or virus in culture; assay type: cell-based, EBOV Zaire strain; conditions: for inhibition at 25 µM: read-out: Inhibition of pseudotype virus at 25 μM in 293T cells (%) HIV/EBOV-GP
[3] = in vitro; conditions: human
[4] = system: recombinant Zaire EBOV expressing green fluorescent protein (GFP-ZEBOV); assay: microbe, parasite or virus in culture; assay type: cell-based, EBOV (Zaire subtype, 1995 strain)
[5] = in vitro; conditions: African green monkey
[6] = system: Vero E6 cells; conditions: African green monkey
[7] = system: HIV/EBOV-GP pseudotype virus; assay: microbe, parasite or virus in culture; assay type: cell-based, EBOV Zaire strain; conditions: Human immunodeficiency virus 1, HEK-293T
[8] = system: EboZ replication; conditions: read-out: IC50, EboZ replication in vitro; cited from earlier work
[9] = system: HIV/EBOV-GP pseudotype virus; assay type: cell-based, EBOV Zaire strain
[10] = system: HIV/VSV-G pseudotype virus; assay type: cell-based, vesicular stomatitis virus
[11] = system: HIV/HA(H5) pseudotype virus; assay: microbe, parasite or virus in culture; assay type: cell-based, influenza virus subtype H5
[12] = system: HIV/MARV-GP pseudotype virus; assay: microbe, parasite or virus in culture; assay type: cell-based, MARV (Lake Victoria strain)
[13] = system: HIV/LASV-GP pseudotype virus; assay: microbe, parasite or virus in culture; assay type: cell-based, Lassa virus (LASV)
[14] = system: 293T cells
[15] = system: HIV/EBOV-GP pseudotype virus; assay type: cell-based, EBOV Zaire strain; remark: listed apart in the source
[16] = system: EBOV Δmucin GP; assay type: cell-based; conditions: pH 5
[17] = biological target: VSV-G (Vesicular stomatitis Indiana virus, UniProt P03522); assay type: cell-based; conditions: pH 5
Sequence of VSV-G (P03522 17-511 limits assumed): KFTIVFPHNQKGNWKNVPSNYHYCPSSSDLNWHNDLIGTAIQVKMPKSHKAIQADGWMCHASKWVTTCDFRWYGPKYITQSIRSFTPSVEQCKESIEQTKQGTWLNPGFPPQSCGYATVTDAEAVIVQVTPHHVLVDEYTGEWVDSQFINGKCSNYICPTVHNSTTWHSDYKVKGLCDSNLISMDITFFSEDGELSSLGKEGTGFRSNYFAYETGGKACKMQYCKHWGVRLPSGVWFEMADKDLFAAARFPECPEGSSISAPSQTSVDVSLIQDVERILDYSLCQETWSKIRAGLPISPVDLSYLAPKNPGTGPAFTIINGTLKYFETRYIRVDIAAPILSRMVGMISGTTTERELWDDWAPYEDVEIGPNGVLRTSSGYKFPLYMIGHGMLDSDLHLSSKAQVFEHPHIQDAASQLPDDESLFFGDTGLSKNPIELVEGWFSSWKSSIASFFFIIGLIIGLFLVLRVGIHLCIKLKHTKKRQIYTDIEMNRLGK

[18] = Human immunodeficiency virus 1, HEK-293T, read-out: HIV/EBOV-Gp IC90 (μM)
[19] = Human immunodeficiency virus 1, HEK-293T, read-out: IC90 (μM) against HIV/EBOV-GP
[20] = Human immunodeficiency virus 1, HEK-293T
[21] = Zaire ebolavirus, Vero C1008, 48 h, read-out: GFP-ZEBOV IC50 (μM)
[22] = Zaire ebolavirus, Vero C1008, 48 h, read-out: GFP-ZEBOV IC90 (μM)
[23] = read-out: inhibition of HIV/EBOV-GP infection, Assay 3: compounds pre-incubated with the virus for 1 hour at 37° C.
[24] = read-out: inhibition of infection, Assay 4: compounds pre-incubated with 293T cells at 4° C. before virus
[25] = Human immunodeficiency virus 1, read-out: HIV/HA (H5) IC90 (μM)
[26] = Human immunodeficiency virus 1, HEK-293T, read-out: HIV/EBOV-GP IC90 (μM)
[27] = Human immunodeficiency virus 1, read-out: HIV/MARV-GP IC90 (μM)
[28] = Human immunodeficiency virus 1, read-out: HIV/LASV-GP IC90 (μM)
[29] = Zaire ebolavirus, Vero C1008, read-out: Infectious EBOV IC50 (μM)

Molecule: CCCN(C)c1c([N+](=O)[O-])cc([N+](=O)[O-])c2cccnc12 [A, 5,7-dinitro-8-[methyl(propyl)amino]quinoline]
- inhibition at 25 µM [1]: 25%
- IC90 [2, 18]: 18.4 µM
- IC90 [2, 19]: 18.4 µM
- inhibition at 25 µM [2, 20]: 98%
- CC50 [3]: 30 µM
- IC50 [4, 21]: 7.5 µM
- IC90 [4, 22]: 10 µM
- CC50 ([5]; GFP-ZEBOV CC50 (μM)): 15 µM

Molecule: COc1cccc(C(CC(=O)c2ccc(Cl)cc2)C(C#N)C#N)c1 (centres unmarked) [B]
- inhibition at 25 µM [1]: 10%
- IC90 [2, 18]: 7.6 µM
- IC90 [2, 19]: 7.6 µM
- inhibition at 25 µM [2, 20]: 100%
- CC50 [6]: 51.5 µM
- CC50 [3]: 25 µM
- IC50 [4, 21]: 10 µM
- IC90 [4, 22]: 20 µM
- inhibition at 10 µM [7, 23]: > 75%
- CC50 ([5]; GFP-ZEBOV CC50 (μM)): > 50 µM

Molecule: Nc1nccc2c1ncn2[C@@H]1C[C@H](CO)[C@@H](O)[C@H]1O [C-c3Ado, carbocyclic adenosine analog 3-deazaadenosinc]
- IC50 [8]: 30 µM

Molecule: CCCNC(=O)[C@H]1O[C@@H]1C(=O)N[C@H](C(=O)N1CCC[C@H]1C(=O)O)[C@@H](C)CC [CA-074]
- inhibition of HIV/EBOV-GP infection [9]: strongly inhibited
- inhibition of HIV/VSV-G infectivity [10]: not

Molecule: CC[C@@]1(O)C(=O)OCc2c1cc1n(c2=O)Cc2cc3ccccc3nc2-1 [C]
- inhibition at 25 µM [1]: 0%
- IC90 [2, 18]: 0.8 µM
- IC90 [2, 19]: 0.8 µM
- inhibition at 25 µM [2, 20]: 98%
- CC50 [3]: 20 µM
- IC50 [4, 21]: 10 µM
- IC90 [4, 22]: 23.5 µM
- inhibition at 10 µM [7, 23]: > 75%
- CC50 ([5]; GFP-ZEBOV CC50 (μM)): 29.5 µM

Molecule: CC1=CC(c2ccccc2)=Nc2cc3ccccc3cc2N1 [Compound G1]
- IC50 [2, 20]: 88.3 µM

Molecule: Cc1cc2c(cc1C)N=C(C(F)(F)F)CC(c1ccc(Cl)cc1)=N2 [Compound G2]
- IC50 [2, 20]: 72.1 µM

Molecule: FC(F)(F)C(F)(F)C1=Nc2ccccc2N=C(c2ccccc2)C1 [Compound G3]
- IC50 [2, 20]: 70.9 µM

Molecule: FC(F)(F)C(F)(F)C1=Nc2cc(Cl)c(Cl)cc2N=C(c2ccccc2)C1 [Compound G4]
- IC50 [2, 20]: 3.7 µM

Molecule: Oc1ccccc1C1=Nc2ccccc2N=C(C(F)(F)F)C1 [Compound G5]
- IC50 [2, 20]: 70.7 µM

Molecule: Cc1ccc(C2=Nc3ccccc3N=C(C(F)(F)F)C2)cc1 [Compound G6]
- IC50 [2, 20]: 75.7 µM

Molecule: COc1ccc(O)c(C2=Nc3ccccc3N=C(C(F)(F)F)C2)c1 [Compound G7]
- IC50 [2, 20]: 85.7 µM

Molecule: Oc1ccccc1C1=Nc2ccccc2N=C(c2cccs2)C1 [Compound G8]
- IC50 [2, 20]: > 100 µM

Molecule: Oc1ccc(Cl)cc1C1=Nc2ccccc2N=C(c2ccco2)C1 [Compound G9]
- IC50 [2, 20]: > 100 µM

Molecule: COc1ccc(O)c(C2=Nc3ccccc3N=C(c3cccs3)C2)c1 [Compound G10]
- IC50 [2, 20]: > 100 µM

Molecule: Oc1ccccc1C1=Nc2ccccc2N=C(c2ccco2)C1 [Compound G11]
- IC50 [2, 20]: > 100 µM

Molecule: O=[N+]([O-])c1cccc(C2=Nc3ccccc3N=C(c3ccccc3O)C2)c1 [Compound G12]
- IC50 [2, 20]: > 100 µM

Molecule: FC(F)C(F)(F)C1=Nc2ccccc2N=C(c2ccccc2)C1 [Compound G]
- Inhibition of pseudotype virus at 25 μM in 293T cells (%) HIV/VSV-GP ([1]; 25 μM): 20%
- IC90 ([11]; read-out: HIV/HA (H5) IC90): > 50 µM
- Inhibition of pseudotype virus at 25 μM in 293T cells (%) HIV/EBOV-GP ([2]; 25 μM): 96%
- IC90 ([2]; read-out: HIV/EBOV-GP IC90): 12.1 µM
- IC90 ([2]; read-out: HIV/EBOV-Gp IC90): 12.1 µM
- IC50 ([2]; read-out: IC50): 12.1 µM
- IC90 ([2]; read-out: IC90 (μM) against HIV/EBOV-GP): 20.1 µM
- IC90 ([12]; read-out: HIV/MARV-GP IC90): 10 µM
- IC90 ([13]; read-out: HIV/LASV-GP IC90): > 50 µM
- GFP-ZEBOV percentage in parentheses beside IC90 >25 [4]: >25 (70%)
- IC50 ([4]; read-out: GFP-ZEBOV IC50): 10 µM
- IC90 ([4]; read-out: GFP-ZEBOV IC90): > 25 µM
- IC50 ([4]; read-out: Infectious EBOV IC50): 10 µM
- CC50 [14]: 75 µM
- inhibition, added at time 0 at 0° C. ("binding") [15]: > 75%

Molecule: O=c1c2ccccc2nc(/C=C/c2ccc([N+](=O)[O-])o2)n1-c1cccc(C(F)(F)F)c1 [D]
- inhibition at 25 µM [1]: 15%
- IC90 [2, 18]: 1.1 µM
- IC90 [2, 19]: 1.1 µM
- inhibition at 25 µM [2, 20]: 100%
- CC50 [6]: 62.5 µM
- CC50 [3]: 30 µM
- GFP-ZEBOV percentage in parentheses beside IC90 >25 [4]: >25 (85%)
- IC50 [4, 21]: 15.5 µM
- IC90 [4, 22]: > 25 µM
- inhibition at 10 µM [7, 24]: > 75%
- CC50 ([5]; GFP-ZEBOV CC50 (μM)): > 50 µM

Molecule: O=C(Nc1ccc(Cl)c(Cl)c1)c1ccc([N+](=O)[O-])o1 [E]
- inhibition at 25 µM [1]: 25%
- IC90 [2, 18]: 20.8 µM
- IC90 [2, 19]: 20.8 µM
- inhibition at 25 µM [2, 20]: 98%
- CC50 [3]: 54 µM
- IC50 [4, 21]: 14.5 µM
- IC90 [4, 22]: 20 µM
- CC50 ([5]; GFP-ZEBOV CC50 (μM)): 40 µM

Molecule: N=c1c2c(-c3ccccc3)c(-c3ccccc3)n(Cc3ccco3)c2ncn1CCCn1ccnc1 [F]
- inhibition at 25 µM [1]: 20%
- IC90 [2, 18]: 10.9 µM
- IC90 [2, 19]: 10.9 µM
- inhibition at 25 µM [2, 20]: 98%
- CC50 [3]: 25 µM
- GFP-ZEBOV percentage in parentheses beside IC90 >25 [4]: >25 (78%)
- IC50 [4, 21]: 15 µM
- IC90 [4, 22]: > 25 µM
- inhibition at 10 µM [7, 24]: > 75%
- CC50 ([5]; GFP-ZEBOV CC50 (μM)): 48.5 µM

Molecule: Cc1ccc(N(c2ccc(C)cc2)c2cccnc2)cc1 [H]
- inhibition at 25 µM [1]: 30%
- IC90 [2, 18]: 23.5 µM
- IC90 [2, 19]: 23.5 µM
- inhibition at 25 µM [2, 20]: 100%
- CC50 [3]: > 50 µM
- GFP-ZEBOV percentage in parentheses beside IC90 >25 [4]: >25 (59%)
- IC50 [4, 21]: 20 µM
- IC90 [4, 22]: > 25 µM
- CC50 ([5]; GFP-ZEBOV CC50 (μM)): 22.6 µM

Molecule: COc1ccc(OC)c(NC(=O)CC(c2ccc(OC)cc2OC)S(=O)(=O)c2ccccc2)c1 (centres unmarked) [I]
- IC90 [11, 25]: > 50 µM
- IC90 [2, 26]: 2.7 µM
- IC90 [12, 27]: 2.8 µM
- IC90 [13, 28]: > 50 µM
- CC50 [3]: 32 µM
- IC50 [4, 29]: 4.6 µM
- activity when added after virus infection (+1 h) ("fusion") [15]: active
- CC50 ([5]; Infectious EBOV CC50 (μM)): 40 µM

Molecule: CCOc1ccc(NC(=O)CSc2nnc(COc3cccc(N(C)C)c3)n2-c2ccccc2)cc1 [K]
- IC90 [11, 25]: > 50 µM
- selectivity index, third value column of Table 7 (head only in drawing) [2]: 39
- IC90 [2, 26]: 2 µM
- IC50 ([2]; Human immunodeficiency virus 1, HEK-293T, read-out: antiviral potency, first value column of Table 7 (head only in drawing)): 2.5 µM
- IC90 [12, 27]: 11 µM
- IC90 [13, 28]: > 50 µM
- CC50 [3]: 98 µM
- IC50 [4, 29]: 2.5 µM
- cytotoxicity, second value column of Table 7 (head only in drawing) ([14]; human): 98
- activity when added after virus infection (+1 h) ("fusion") [15]: active
- CC50 ([5]; Infectious EBOV CC50 (μM)): 50 µM

Molecule: Bafilomycin
- inhibition of cell-cell fusion, EBOV expressing cells [16]: completely inhibited
- inhibition of cell-cell fusion, VSV-G expressing cells [17]: completely inhibited
